Where “and” joins values, the source holds several entries; their conditions need not be identical. Equal entries are not always repeated. Where two headings read alike, the source gives them in different places.
Legend:
[1] = tested on: A549 cells; assay: CCK-8 antiproliferation assay, A549; settings: for Inhibitory efficacy: A549 cells
[2] = tested on: CCND1, CCNA2, CCNB1, CDK2, CDK6 RNA in PC-9 cells; assay: qPCR assay for cell cycle-related gene analysis; type: cell-based, human; settings: for CCNB relative mRNA expression (2^-ddCt vs NC, normalised to beta-Actin) / CCND1 relative mRNA expression (2^-ddCt vs NC, normalised to beta-Actin) / CDK6 relative mRNA expression (2^-ddCt vs NC, normalised to beta-Actin): qPCR SYBR_GREEN, NC = 1; for RQ / RQ, CCNA: endogenous control b-Actin, reference sample NC; for 2^ΔΔCт CCNA / 2^ΔΔCт CCNB / 2^ΔΔCт CCND1 / 2^ΔΔCт CDK2 / 2^ΔΔCт CDK6: Repeat 1-3, relative to NC = 1; for RQ, CCNA: qPCR SYBR Green
Description: To better understand the mechanisms underlying cell cycle arrest induced by e4 and e12 in NSCLC cells, we assessed the expression levels of a few genes involved in cell cycle regulation, including cyclin D1 (CCND1), cyclin A2 (CCNA2), cyclin B1 (CCNB1), cyclin-dependent kinase 2 (CDK2), and cyclin-dependent kinase 6 (CDK6) in PC-9 by qPCR. […] CCNA2 is known to bind and activate CDK2 and thus promotes the transition through G1/S and G2/M. CCNB1 and CCND1 are essential to mitosis and G1/S transition respectively. While G2/M arrest weas not detected, the changes in these gene expression profiles interpret the G1/S arrests in PC-9 cells treated with e4 and e12. PC-9 cells exposed to the compounds for various periods should be examined further.
Total RNA of cells was extracted and cDNA was synthesized. The primers for the target products were designed as in Table 3.

[3] = PC-9, 16 h, compared with DMSO control

SMILES: COCCOc1cc2ncnc(Nc3cccc(-c4cn(Cc5cc(Br)cc(Br)c5)nn4)c3)c2cc1OCCOC [e4, [6,7-Bis-(2-methoxy-ethoxy)-quinazolin-4-yl]-{3-[1-(3,5-dibromo-benzyl)-1H-[1,2,3]triazol-4-yl]-phenyl}-amine]
- Inhibitory efficacy ([1]; 4uM, given as fraction, Repeat 1-3): 0.2144 and 0.2227
- Inhibitory efficacy ([1]; 8uM, given as fraction, Repeat 1-3): 0.7075 and 0.6166
- Inhibitory efficacy ([1]; 16uM, given as fraction, Repeat 1-3): 0.9444 and 0.9355
- IC50 ([1]; Homo sapiens, A549, 48 h, read-out: IC50 (μM) A549, CCK-8, 48 h, average ± SD of three independent experiments): < 10 µM
- inhibition at 4 µM ([1]; Homo sapiens, A549, read-out: Inhibitory efficacy, A549 cells, 4uM, given as fraction, Repeat 1-3): 35.6%
- inhibition at 8 µM ([1]; Homo sapiens, A549, read-out: Inhibitory efficacy, A549 cells, 8uM, given as fraction, Repeat 1-3): 75.6%
- inhibition at 16 µM ([1]; Homo sapiens, A549, read-out: Inhibitory efficacy, A549 cells, 16uM, given as fraction, Repeat 1-3): 94.8%
- IC50 ([1]; read-out: IC50 (μM) A549, CCK-8, 48 h, average ± SD of three independent experiments): 5.8 ± 0.78 µM
- CCNB relative mRNA expression (2^-ddCt vs NC, normalised to beta-Actin) ([2]; 4uM): 0.8081
- CCNB relative mRNA expression (2^-ddCt vs NC, normalised to beta-Actin) ([2]; 8uM): 0.7848
- CCND1 relative mRNA expression (2^-ddCt vs NC, normalised to beta-Actin) ([2]; 8uM): 0.7172
- CDK6 relative mRNA expression (2^-ddCt vs NC, normalised to beta-Actin) ([2]; 8uM): 0.824
- CCNB relative mRNA expression (2^-ddCt vs NC, normalised to beta-Actin) ([2]; 12uM): 0.736
- CCND1 relative mRNA expression (2^-ddCt vs NC, normalised to beta-Actin) ([2]; 12uM): 0.6074
- CDK6 relative mRNA expression (2^-ddCt vs NC, normalised to beta-Actin) ([2]; 12uM): 1.051
- RQ ([2]; CCNA mRNA, 4uM): 0.764
- RQ ([2]; CCNA mRNA, 8uM): 0.7042
- RQ ([2]; CCNA mRNA, 12uM): 0.7817
- 2^ΔΔCт CCNA ([2]; 4uM): 0.7613 and 0.8165 and 0.764
- 2^ΔΔCт CCNA ([2]; 8uM): 0.7109 and 0.778 and 0.7042
- 2^ΔΔCт CCNA ([2]; 12uM): 0.5857 and 0.5446 and 0.7817
- RQ ([2]; CCNB mRNA, 4uM): 0.9138
- RQ ([2]; CCNB mRNA, 8uM): 0.7783
- RQ ([2]; CCNB mRNA, 12uM): 1.003
- 2^ΔΔCт CCNB ([2]; 4uM): 0.8081 and 0.8617 and 0.9138
- 2^ΔΔCт CCNB ([2]; 8uM): 0.7848 and 0.9105 and 0.7783
- 2^ΔΔCт CCNB ([2]; 12uM): 0.736 and 0.7897 and 1.003
- 2^ΔΔCт CCND1 ([2]; CCND1, 4uM): 0.8337 and 1.076 and 0.8297
- 2^ΔΔCт CCND1 ([2]; CCND1, 8uM): 0.7172 and 1.068 and 0.8923
- 2^ΔΔCт CCND1 ([2]; CCND1, 12uM): 0.6074 and 0.7441 and 0.7112
- 2^ΔΔCт ([2]; CCND1, 12uM, normalized to WT (NC), run 20201020-2): 0.7112
- RQ ([2]; CCND1 mRNA, 4uM): 0.8297
- RQ ([2]; CCND1 mRNA, 8uM): 0.8923
- RQ ([2]; CCND1 mRNA, 12uM): 0.7112
- 2^ΔΔCт CDK2 ([2]; CDK2, 4uM): 1.17 and 1.2056 and 1.028
- 2^ΔΔCт CDK2 ([2]; CDK2, 8uM): 1.1688 and 1.551 and 1.159
- 2^ΔΔCт CDK2 ([2]; CDK2, 12uM): 0.9257 and 1.095 and 1.173
- RQ ([2]; CDK2 mRNA, 4uM): 1.028
- RQ ([2]; CDK2 mRNA, 8uM): 1.159
- RQ ([2]; CDK2 mRNA, 12uM): 1.173
- 2^ΔΔCт CDK6 ([2]; CDK6, 4uM): 0.8111 and 1.387 and 0.8685
- 2^ΔΔCт CDK6 ([2]; CDK6, 12uM): 1.051 and 1.348 and 1.109
- RQ ([2]; CDK6 mRNA, 4uM): 0.8685
- RQ ([2]; CDK6 mRNA, 8uM): 0.637
- RQ ([2]; CDK6 mRNA, 12uM): 1.109
- RNA expression of CCND1 ([2]; PC-9, 12 μM, 16 h): negatively regulated
- RNA level of CCNA2 [2, 3]: significantly decreased
- RNA level of CCNB1 [2, 3]: significantly decreased
- RQ, CCNA ([2]; CCNA mRNA, 4uM): 0.8165
- RQ, CCNA ([2]; CCNA mRNA, 8uM): 0.778
- RQ, CCNA ([2]; CCNA mRNA, 12uM): 0.5446
